Measurements: patent US8394362B2, “Gem difluorinated C-glycopeptides, their preparation and their use for the preservation of biological materials and/or in cryosugery” (priority 2004, dated 2013)
Like-named read-outs stand apart in the source and are kept apart here.

Assays:
HEK 293 cells = test: Preservation of HEK 293 kidney cells at low temperatures (Trypan blue cell count); assay type: cell-based
Experimental: The cells were then diluted to 75,000 cells/mL. Subsequently they were distributed over 6 plates with six 3 mL-wells per plate. This concentration is a good compromise between a concentration sufficiently low to prevent cell death by autocytotoxicity and sufficiently high to permit cell sampling and counting without any pre-concentration likely to reduce their survival. Each plate had two control wells not containing product 15, two wells with concentrations of product 15 adjusted to 0.01 mg/mL, and two others with 0.1 mg/mL. Each plate was then incubated at the following temperatures: 4° C., 2° C., 0° C., −2° C., −4° C., and −20° C. Each well was subsequently sampled at the following incubation times: 2, 8, and 22 hours.

erythrocytes = test: Preservation of erythrocytes: haemolysis at different temperatures; assay type: cell-based, human
Experimental: The death of erythrocytes can be ascertained by rupture of the plasma membrane. This phenomenon is called haemolysis. Detection of haemolysis is the chief tool used in this experiment to determine the effect of product 15 at different temperatures on the preservation of erythrocytes. Blood sampling→Aliquots→Addition of AAGP (compound 15)→Various temperatures→Observation of haemolysis Product 15 was tested at concentrations of 0 mg/mL, 0.1 mg/mL, 1.0 mg/mL at temperatures of 3, 0, −3, −5, −10, −15, −23, −78° C. From a sample of human blood in a borosilicate heparinized tube, microtubes of 275 μL were filled to full capacity. One third of the microtubes were completed with 2.75 μL of product 15 (10 mg/mL in H2O), and one third of the microtubes were completed with 27.5 μL of product 15 (10 mg/mL in H2O). The blood was divided among the tubes to full capacity to prevent air contact as much as possible. […] The microtubes were frozen on a microtube support and the experiment was conducted using a slow-freeze apparatus at −78° C., whilst thawing was always conducted at room temperature on the microtube rack. After thawing, the microtubes were delicately homogenized by inverting a few times and a sample of erythrocytes was taken. […] Co is the initial Ery count • Cexp is the experimental Ery count Materials

blood platelets = test: Preservation of blood platelets: platelet clustering over 21 days; assay type: cell-based
Experimental: The purpose is to test product 15 on the preservation of blood platelets to improve current protocols which only allow their preservation for 5 days. The test was conducted at four different temperatures 22° C., 15° C., 4° C. and finally 0° C. Platelet follow-up lasted 21 days to examine platelet clustering. Clustering is one of the first and most definitive indicators of platelet degradation. During their degradation, the platelets become active, lose their morphology, become fibrous, form clusters and finally degenerate. A platelet count is made but the result is rather more based on the extent of clustering.

H9c2(2-1) cells [1] = assay type: cell-based, rat
Experimental: The test was conducted on rat heart myoblasts to consider application of these compounds for the preservation of organs such as the heart for subsequent transplant.
Another test was conducted on myoblasts at temperatures of 3° C. and −3° C. The purpose of the experiment this time was to increase the concentrations of glycoproteins 15 and 30 equimolar fashion (the molecular weight of the dimer being 2× greater than that of the monomer). The increase in concentration was 2.5 mg/mL for monomer 15 and 5 mg/mL for dimer 30. The temperatures were chosen over a range frequently used for the preservation of cells and tissues. The idea being subsequently to continue this experiment directly on tissues.

[2] = test system: CCD-27Sk fetal fibroblast skin cells
Source text: […] Materials

[3] = test system: adult primary skin fibroblasts; test: Protection of adult primary skin fibroblasts in culture medium; assay type: cell-based; conditions: 15 mg/mL, after six days, culture media
Experimental: This test was extended to adult primary fibroblasts.
For adult fibroblasts, a culture medium (rich in factors) is used,
The concentration of product 15 is 15 mg/mL.

embryonic fibroblasts = conditions: 15 mg/mL; 1 mM H2O2; 37° C.; after 10 hours; serum-free medium with 0.5 mM EDTA
H9c2(2-1) cells [4] = assay type: cell-based, rat; remark: listed apart in the source
[5] = 0.1 mg/mL, 40 min, −78° C. with slow cooling
[6] = 0.1 mg/mL, 2 h, 3, 0, −3, −5 and −10° C.
[7] = 0.1 mg/mL, 4 h, 3, 0, −3, −5 and −10° C.
[8] = 0.1 mg/mL, 9 h, 3, 0, −3, −5 and −10° C.
[9] = 0.1 mg/mL, 24 h, 3, 0, −3, −5 and −10° C.
[10] = 1.0 mg/mL, 40 min, −78° C. with slow cooling
[11] = 1.0 mg/mL, 2 h, 3, 0, −3, −5 and −10° C.
[12] = 1.0 mg/mL, 4 h, 3, 0, −3, −5 and −10° C.
[13] = 1.0 mg/mL, 9 h, 3, 0, −3, −5 and −10° C.
[14] = 1.0 mg/mL, 24 h, 3, 0, −3, −5 and −10° C.

C[C@H](NC(=O)[C@H](C)NC(=O)[C@@H](N)CCCCNC(=O)C(F)(F)C1(O)O[C@H](CO)[C@H](O)[C@H](O)[C@H]1O)C(=O)O (stereo partly drawn) [product 15]
cell survival compared with negative control (HEK 293 cells; 0.01 mg/mL): does not appear to improve cell survival
cell survival rate compared with negative control (HEK 293 cells; 0.10 mg/mL, five of six temperatures (4, 2, 0, −2, −4, −20° C.), 2, 8, 22 h): led to the best cell survival rates even if the improvement remained low
cell appearance and Trypan blue uptake after thawing (HEK 293 cells; −20° C., after two hours): maintained the appearance of spherical retractile cells and did not absorb Trypan blue
cells remaining after re-incubation (HEK 293 cells; −20° C., eight hours' incubation, both concentrations (0.01 and 0.1 mg/mL)): complete disappearance of all cells
% Haemolysis (erythrocytes; [5]): 36%
% erythrocytes (erythrocytes; [5]): 64%
% Ery (erythrocytes; [6]): 100%
% Haemolysis (erythrocytes; [6]): 0%
% Ery (erythrocytes; 0.1 mg/mL, 2 h, −15° C.): 73%
% Haemolysis (erythrocytes; 0.1 mg/mL, 2 h, −15° C.): 27%
Number of erythrocytes (erythrocytes; 0.1 mg/mL, 2 h, −15° C.): 90
% Ery (erythrocytes; [7]): 100%
% Haemolysis (erythrocytes; [7]): 0%
% Ery (erythrocytes; 0.1 mg/mL, 4 h, −15° C.): 0%
% Haemolysis (erythrocytes; 0.1 mg/mL, 4 h, −15° C.): 100%
Number of erythrocytes (erythrocytes; 0.1 mg/mL, 4 h, −15° C.): 0
% Ery (erythrocytes; [8]): 100%
% Haemolysis (erythrocytes; [8]): 0%
% Ery (erythrocytes; 0.1 mg/mL, 9 h, −15° C.): 0%
% Haemolysis (erythrocytes; 0.1 mg/mL, 9 h, −15° C.): 100%
Number of erythrocytes (erythrocytes; 0.1 mg/mL, 9 h, −15° C.): 0
% Ery (erythrocytes; [9]): 100%
% Haemolysis (erythrocytes; [9]): 0%
% Haemolysis (erythrocytes; [10]): 97%
% erythrocytes (erythrocytes; [10]): 3%
% Ery (erythrocytes; [11]): 100%
% Haemolysis (erythrocytes; [11]): 0%
% Ery (erythrocytes; 1.0 mg/mL, 2 h, −15° C.): 98%
% Haemolysis (erythrocytes; 1.0 mg/mL, 2 h, −15° C.): 2%
Number of erythrocytes (erythrocytes; 1.0 mg/mL, 2 h, −15° C.): 120
% Ery (erythrocytes; [12]): 100%
% Haemolysis (erythrocytes; [12]): 0%
% Ery (erythrocytes; 1.0 mg/mL, 4 h, −15° C.): 100%
% Haemolysis (erythrocytes; 1.0 mg/mL, 4 h, −15° C.): 0%
Number of erythrocytes (erythrocytes; 1.0 mg/mL, 4 h, −15° C.): 133
% Ery (erythrocytes; [13]): 100%
% Haemolysis (erythrocytes; [13]): 0%
% Ery (erythrocytes; 1.0 mg/mL, 9 h, −15° C.): 98%
% Haemolysis (erythrocytes; 1.0 mg/mL, 9 h, −15° C.): 2%
Number of erythrocytes (erythrocytes; 1.0 mg/mL, 9 h, −15° C.): 121
% Ery (erythrocytes; [14]): 100%
% Haemolysis (erythrocytes; [14]): 0%
protection of erythrocytes (erythrocytes; temperature below −15° C., 1.0 mg/mL): no protection is observed
haemolysis (erythrocytes; temperature range of 2 to −10° C., 0 to 24 hours, with or without product): no haemolysis
protection of erythrocytes (erythrocytes; −15° C.): really protects the erythrocytes
protection of erythrocytes (erythrocytes; −15° C., 4 and 9 hours, 1.0 mg/mL): complete protection
protection of erythrocytes (erythrocytes; −15° C., after two hours, 0.1 mg/mL): partly protects the erythrocytes
protection of erythrocytes (erythrocytes; −15° C., after two hours, 1.0 mg/mL): completely
relation of % haemolysis to concentration (erythrocytes; −78° C. slow cooling, freezing point, after 40 minutes): direct correlation is observed between % haemolysis and concentrations of product 15
platelet clustering (blood platelets; 0° C., with or without glycoprotein): no clustering is seen
platelet clustering (blood platelets; 4° C., irrespective of concentrations): almost no clustering is observed
platelet clustering compared with control (blood platelets; 15° C., over time): a greater increase in clustering is observed in the control than in the samples containing the compound
time up to which samples do not show any platelet clusters (blood platelets; 22° C., 1 mg/mL and 4 mg/mL): up to 7 days
platelet clustering (blood platelets; 22° C., 4 mg/mL (most concentrated samples)): the least clustering
platelet clustering compared with control (blood platelets; 22° C., 13, 17 and 21 days): true inhibition of platelet clustering
survival rate relative to control (control 19%) (H9c2(2-1) cells [1]; 3° C. (FIG. 42 as printed), after 8 hours, monomer […], dimer 5 mg/mL): more than twice as high
cells preserved (H9c2(2-1) cells [1]; after 16 hours, FIGS. 41 and 42, monomer […], dimer 5 mg/mL): approximately 90%
myoblasts still living (H9c2(2-1) cells [1]; after 24 hours, FIGS. 41 and 42, monomer […], dimer 5 mg/mL): ~65%
efficacy versus concentration (H9c2(2-1) cells [1]; −3° C. (FIG. 43), 1 mg/mL versus 2.5 / 5 mg/mL): greater efficacy at higher concentrations
preservation of skin fibroblasts, overall ([2]; 5 mg/mL (8.6 mM), 22, 3, −3, −20° C.): better preservation in the presence of product 15 at all temperatures except at −20 °C
survival rates over time compared with control ([2]; 5 mg/mL, 22° C., 3° C., −3° C. (FIGS. 48 to 50)): much better survival rates
cell preservation with or without product ([2]; 5 mg/mL, 8 hours (FIG. 44), entire temperature range): no difference is found
cell survival rate compared with control ([2]; 5 mg/mL, 20 hours (FIG. 46)): better cell survival rate with monomer 15 than with the control
survival rate ([2]; 5 mg/mL, 20 hours (FIG. 46), −3° C.): 50%
cell preservation compared with control ([2]; 5 mg/mL, after 12 hours, 22° C. and −3° C.): better preservation
cell survival compared with control ([2]; 5 mg/mL, after 30 hours (FIG. 47), especially at 3° C.): distinct improvement
survival ([2]; 5 mg/mL, after 30 hours (FIG. 47), −3° C.): 70%
cell fate on freezing ([2]; 5 mg/mL, −20° C.): death of the cells after thawing
survival ([2]; 10 mg/mL, 15° C., after four days, low-serum media): 46%
cells preserved ([2]; 10 mg/mL, 37° C., after four days, low-serum media): approximately 100%
cell morphology ([2]; 10 mg/mL, Day 1 (FIG. 55)): preserve a spherical shape and maintain their integrity
cell survival rate versus concentration ([2]; 3 and −3° C., 20 and 34 hours, up to 15 mg/mL): improves cell survival rate
protective effect on cells ([2]; 3 and −3° C., concentrations up to 15 mg/mL, after 34 hours): ~100%
survival ([3]; 3° C.): 100%
cells protected ([3]; 15° C.): 100%
survival (embryonic fibroblasts): approximately 80%
number of living cells over incubation time (H9c2(2-1) cells [4]; 1 mg/mL, −3° C. (FIG. 40)): slow decrease over incubation time in the number of living cells
dependence of cell survival rate on concentration (H9c2(2-1) cells [4]; 0.1, 0.5 and 1 mg/mL): better results at 1 mg/mL than at 0.1 and 0.5 mg/mL
survival percentage over time (H9c2(2-1) cells [4]; main experiment, 1 mg/mL, 4° C., up to 45 hours): better survival percentage over the entire duration of the experiment
survival (H9c2(2-1) cells [4]; main experiment, 1 mg/mL, 22° C., after 45 hours): 65%
protective effect, monomer versus dimer (H9c2(2-1) cells [4]; main experiment, 1 mg/mL, after 16 hours, 4° C.): gives the best results
cell survival compared with control (H9c2(2-1) cells [4]; main experiment, 1 mg/mL, up to 8 hours, 22, 4, −3 and −10° C.): no significant difference
survival compared with control (H9c2(2-1) cells [4]; main experiment, 1 mg/mL, −10° C.): slight improvement
survival percentage (H9c2(2-1) cells [4]; preliminary experiment, 2° C. as printed (method −2° C.), 20 hours, 0.1 mg/mL): identical to the control
